The target of the test is T1, Recombinant human mPGES-1 (Homo sapiens, UniProt O14684).
T1 sequence (O14684 1-152): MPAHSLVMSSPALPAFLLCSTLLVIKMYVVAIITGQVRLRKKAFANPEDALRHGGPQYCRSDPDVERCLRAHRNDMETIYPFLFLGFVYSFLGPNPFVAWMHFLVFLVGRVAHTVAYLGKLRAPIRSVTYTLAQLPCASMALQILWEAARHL
Briefly: In-vitro mPGES-1 enzyme inhibition assay (PGE2 formation from PGH2, HTRF detection). Format: biochemical. Particulars: for inhibition at 1 µM: 1 μM test compound, read-out: Percentage inhibition at 1 μM; for inhibition at 1 µM / inhibition at 10 µM: recombinant human mPGES-1 microsomal fraction; for inhibition at 10 µM: 10 μM test compound, read-out: Percentage inhibition at 10 μM; for IC50: class symbols, selected examples. An excerpt: In-Vitro Protocol for Screening of mPGES-1 Inhibitors: mPGES-1 (microsomal prostaglandin E synthase-1) is a microsomal enzyme that converts endoperoxide substrate PGH2 (prostaglandin H2) to product PGE2 (prostaglandin E2) by isomerization in the presence of reduced glutathione (GSH). mPGES-1 inhibitors were screened by assessing their ability to inhibit formation of PGE2 from PGH2 in presence of mPGES-1 using anti-PGE2 antibody based detection method. […] Assay was set up using crude microsomal fractions at protein concentration of 40-60 μg/mL. […] Final concentration of DMSO in reaction was 0.5% (v/v). Negative controls comprised of all assay reagents except the enzyme. Positive controls comprised of enzyme reaction in the absence of any inhibitor. […] Reaction was stopped by addition of Stannous chloride (11 mg/ml) and PGE2 levels were measured ([…] et al. […] Inhibition of mPGES-1 enzyme activity was measured using percent of reaction occurring in the positive control. Concentration response curves were plotted using percent inhibition of maximum enzyme reaction. IC50 value was calculated from concentration response curve by nonlinear regression analysis using GraphPad PRISM software.
(TR-FRET usually uses a lanthanide donor and a delayed reading to cut background.)

The term inhibition denotes the share of the control response that was lost under treatment. For orientation: IC50 means the concentration that gives 50% inhibition. In the case of `CCCCCCNC(=O)c1cc2nc(Nc3c(Cl)cncc3Cl)[nH]c2c2c1OC(C)(C)C2` [Example-3, 2-[(3,5-Dichloropyridin-4-yl)amino]-N-hexyl-7,7-dimethyl-7,8-dihydro-1H-furo[3,2-e]benzimidazole-5-carboxamide], the inhibition at 1 µM is 99.1%, the inhibition at 10 µM was 99.5% and the IC50 is < 50 nM.

In the case of `CC(NC(=O)c1cc2nc(Nc3c(Cl)cncc3Cl)[nH]c2c2c1OC(C)(C)C2)C1CCCCC1` (stereo not shown) [Example-5, N-(1-Cyclohexylethyl)-2-[(3,5-dichloropyridin-4-yl)amino]-7,7-dimethyl-7,8-dihydro-1H-furo[3,2-e]benzimidazole-5-carboxamide], the inhibition at 1 µM is 97.7%, the inhibition at 10 µM was found to be 97.8% and the IC50 was < 50 nM.

As to `CC1(C)Cc2c(c(C(=O)Nc3cccc(C4CC4)c3)cc3nc(Nc4c(F)cccc4Cl)[nH]c23)O1` [Example-165, 2-((2-Chloro-6-fluorophenyl)amino)-N-(3-cyclopropylphenyl)-7,7-dimethyl-7,8-dihydro-1H-benzofuro[4,5-d]imidazole-5-carboxamide], the inhibition at 1 µM came out at 99.4%, the inhibition at 10 µM was determined as 98.1% and the IC50 was < 50 nM.

Consider `CC1(C)Cc2c(c(C(=O)Nc3cccc(F)c3)cc3nc(Nc4c(F)cccc4Cl)[nH]c23)O1` [Example-56, 2-[(2-Chloro-6-fluorophenyl)amino]-N-(3-fluorophenyl)-7,7-dimethyl-7,8-dihydro-1H-furo[3,2-e]benzimidazole-5-carboxamide], for which the inhibition at 1 µM was 96%, the inhibition at 10 µM came to 98.2% and the IC50 is < 50 nM.

As to `CC1(C)Cc2c(c(C(=O)NNc3ccc(Br)cc3)cc3nc(Nc4c(Cl)cccc4Cl)[nH]c23)O1` [Example-74], the inhibition at 1 µM came to 93.4%, the inhibition at 10 µM was 94.7% and the IC50 was 50 to 100 nM.

Turning to `CC1(C)Cc2c(c(C(=O)NCC(F)(F)C(F)(F)F)cc3nc(Nc4ccc(F)cc4Cl)[nH]c23)O1` [Example-94, 2-[(2-Chloro-4-fluorophenyl)amino]-7,7-dimethyl-N-(2,2,3,3,3-pentafluoropropyl)-7,8-dihydro-1H-furo[3,2-e]benzimidazole-5-carboxamide], the inhibition at 1 µM came to 66% and the inhibition at 10 µM is 76.4%.

In the case of `CC1(C)Cc2c(c(C(=O)Nc3cccc(C(F)(F)F)c3)cc3nc(NC(=O)c4c(F)cccc4Cl)[nH]c23)O1` [Example-143, 2-(2-Chloro-6-fluorobenzamido)-7,7-dimethyl-N-(3-(trifluoromethyl)phenyl)-7,8-dihydro-1H-benzofuro[4,5-d]imidazole-5-carboxamide], the inhibition at 1 µM is 19.6% and the inhibition at 10 µM stood at 39.2%.

With `Cc1ccc(NC(=O)c2cc3nc(Nc4c(F)cccc4Cl)n(C)c3c3c2OC(C)(C)C3)c(F)c1` [Example-154, 2-((2-Chloro-6-fluorophenyl)amino)-N-(2-fluoro-4-methylphenyl)-1,7,7-trimethyl-7,8-dihydro-1H-benzofuro[4,5-d]imidazole-5-carboxamide], the inhibition at 1 µM worked out at 99.8%, the inhibition at 10 µM came out at 100% and the IC50 was < 50 nM.

On to `CC1(C)Cc2c(c(C(=O)NCc3ccccc3Br)cc3nc(Nc4c(Cl)cccc4Cl)[nH]c23)O1` [Example-84, N-(2-Bromobenzyl)-2-[(2,6-dichlorophenyl)amino]-7,7-dimethyl-7,8-dihydro-1H-furo[3,2-e]benzimidazole-5-carboxamide], for which the inhibition at 1 µM worked out at 93.7%, the inhibition at 10 µM is 94.4% and the IC50 was < 50 nM.

As to `Cc1ccc(NC(=O)c2cc3nc(Nc4c(Cl)cccc4Cl)[nH]c3c3c2OC(C)(C)C3)c(F)c1` [Example-142, 2-((2,6-Dichlorophenyl)amino)-N-(2-fluoro-4-methylphenyl)-7,7-dimethyl-7,8-dihydro-1H-benzofuro[4,5-d]imidazole-5-carboxamide], the inhibition at 1 µM is 97.9%, the inhibition at 10 µM came out at 97.5% and the IC50 was < 50 nM.
